Records with an inconclusive call do not appear. Bounds are passed on as bounds.

For the test, the target named is Virion infectivity factor (Human immunodeficiency virus type 1 group M subtype B (isolate BH10)) + Virion infectivity factor (Human immunodeficiency virus type 1 group M subtype B (isolate BRU/LAI)) + Virion infectivity factor (Human immunodeficiency virus type 1 group M subtype B (isolate PCV12)) + Virion infectivity factor (Human immunodeficiency virus type 1 group M subtype B (isolate HXB2)) + DNA dC->dU-editing enzyme APOBEC-3G (Homo sapiens) (UniProt P69720+P69721+P69722+P69723+Q9HC16). The experiment in a line: HIV-1 Vif–A3G interaction blockers – biochemical, TR-FRET, GST-Vif 1-94, biotin-A3G peptide, dose response retest, primary screen (AID 1117319).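 Note: Vif residues 1-94 fused to GST binding biotinylated APOBEC3G peptide 110-148.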 The following applies: TR-FRET GST-Vif / biotin-A3G peptide binding. In general terms: TR-FRET usually uses a lanthanide donor and a delayed reading to cut background.
Usually IC50 stands for the point on the concentration scale where inhibition reaches its midpoint. Consider `Oc1cc2c(cc1O)[C@H]1c3ccc(O)c(O)c3OC[C@@]1(O)C2`, for which the IC50 was 0.57 µM.
`CCN=c1scc(C)n1/N=C/c1ccc(O)c(O)c1O`: the IC50 is 2.47 µM.
The figure for `CCC(C)C(NC(=O)[C@@H](NC(=O)c1ccccc1F)C(C)C)C(=O)OC` (stereo not given in full) is 5.83 µM; for `CCC(c1nnnn1C(C)(C)CC)N(CCCO)Cc1cc2cc(C)cc(C)c2[nH]c1=O` (stereo not given) it is 0.49 µM; for `Oc1ccc(/C=C/c2cc(O)cc(O)c2)cc1` it is 25.3 µM.
The same measure for `O=C(CSc1nnc(-c2ccco2)c(-c2ccco2)n1)Nc1ccccc1`: 3.12 µM; for `C=C(C)C(=O)Nc1cccc(C2=NOC3(C2)C[C@@H](C(N)=O)N(C(=O)CCCCC)C3)c1` (stereo not given in full): 0.22 µM; for `O=C1CC(c2ccco2)CC(O)=C1C=Nc1cc(Cl)cc(Cl)c1` (stereo not given): 4.12 µM.
The same measure for `O=C(NNC(=O)c1ccccc1O)c1cc2ccccc2o1`: 16.5 µM.
Turning to `Cc1ccc(-c2ccc(CCC(=O)O)n2NC(N)=S)cc1`, the half-maximal inhibitory concentration (IC50) was 11.5 µM.
The same measure for `Cc1cccc(-n2c(N)cc(=O)nc2SCC(=O)NC2CCCCC2)c1`: 93.7 µM; for `Cc1cccc(N(C(=O)Cn2nnc3ccccc32)C(C(=O)NCc2ccco2)c2ccncc2)c1C` (stereo not given): 4.66 µM.
The figure for `COC(=O)C1=C(C)NC(=O)/C1=C\c1ccco1` is 6.12 µM; for `CCCc1cc(=O)oc2cc(C)c(CN3CCCC3)c(O)c12` it is 3.46 µM.
The same measure for `Cc1cccc(C)c1NC(=O)CSc1nnc(-c2ccco2)c(-c2ccco2)n1`: 2.05 µM; for `Cc1cc(S(=O)(=O)N(Cc2ccccn2)Cc2ccco2)ccc1-n1cnnn1`: 83.6 µM.
Turning to `COc1cc(CC(=O)OCC(=O)Nc2cccc([N+](=O)[O-])c2)cc(OC)c1OC`, the IC50 was 11.8 µM.
The same measure for `Cc1cc(SCC2=NNC(=O)C2)c(Cl)cc1Cl`: 63.2 µM; for `CC(=C\c1ccco1)/C=C1/SC(=S)N(CC(=O)O)C1=O`: 14.7 µM.
The figure for `COC(=O)Cc1cc(=O)n(-c2nc3ccccc3[nH]2)[nH]1` is 21.6 µM; for `Cc1c(C)n(C(=O)CSc2nc3ccccc3[nH]2)c2ccccc12` it is 39.7 µM; for `COc1cc(NC(=O)c2noc3c2CCC3)c(OC)cc1Cl` it is 15.8 µM.
The figure for `CSc1oc(-c2ccco2)nc1S(=O)(=O)c1ccccc1` is 31.5 µM.
As for `COC(=O)c1ccc(COc2ccc(/C=N/Nc3cccc(C(=O)O)c3)cc2)cc1`, the 50% inhibitory concentration (IC50) was 63.2 µM.
The figure for `O=C(O)C1=NN(c2cc(Cl)c(S(=O)(=O)O)cc2Cl)C(=O)C1` is 85.7 µM.
The same measure for `CCOC(=O)c1ccc(CC(=O)c2ccc(O)c(O)c2O)o1`: 11.5 µM.
The figure for `NCCc1c[nH]c2ccccc12` is 1.66 µM.
On to `CC(C)CC(=O)Nc1nnc(-c2ccco2)s1`, for which the IC50 was 68.1 µM.
The figure for `COc1cc(N(C)C)ccc1C=c1c2ccccc2n2c1cc(-c1ccccc1)[n+]2C` is 5.33 µM; for `O=C(COC(=O)/C=C/c1ccco1)Nc1ncc(C(F)(F)F)cc1Cl` it is 12.7 µM.
The figure for `CC(C)(C)C1C/C(=C/c2ccco2)C(=O)/C(=C/c2ccco2)C1` (stereo not given) is 2.65 µM; for `O=C1NC(=S)N/C1=C/c1ccc(-c2c(Br)cc([N+](=O)[O-])cc2Br)o1` it is 39 µM; for `Cc1ccc(CCC(=O)Nc2ccc(S(N)(=O)=O)cc2)o1` it is 57.4 µM.
The figure for `O=[N+]([O-])c1cc(CN2CCOCC2)c2cccnc2c1O` is 4.07 µM.
Take `COc1ccc2c(c1)CC1(CN2C)C(=O)NC(=O)N(c2ccc(C)cc2)C1=O` (stereo not given): the IC50 is 58.9 µM.
The figure for `CN=c1scc(-c2cccs2)n1/N=C/c1ccc(O)c(O)c1O` is 1.95 µM.
The same measure for `CC(=O)NC1=NC(=O)/C(=C/c2cc(C)n(-c3cccc(C(=O)O)c3)c2C)S1`: 7.28 µM; for `CCOC(=O)COc1nc(-c2ccco2)cc(-c2ccco2)c1C#N`: 5.83 µM; for `COc1cc(OC)c2c(c1O)OC(c1ccccc1)CC2=O` (stereo not given): 4.82 µM.
The same measure for `O=C1C=C(N2CC2)c2ccccc2C1=O`: 11.3 µM; for `NC(=S)N=Nc1c(O)cc(O)c2[nH]c(=O)ccc12`: 8.04 µM.
On to `CC(=O)N1CCN(c2ccc(NCc3ccc4c(c3)OCO4)cc2)CC1`, for which the 50% inhibitory concentration (IC50) was 3.78 µM.
The figure for `CCN(CC)Cc1cc(O)c(CN(CC)CC)cc1O` is 10.8 µM; for `Cc1cc(O)c(Oc2cc(C)cc(O)c2O)c(O)c1` it is 13.8 µM.
The same measure for `Cc1ccn2cc(-c3nonc3C)cc2c1`: 22.5 µM; for `O=C(/C=C/c1ccc(O)c(O)c1)OC1C(O)CC(OC(=O)/C=C/c2ccc(O)c(O)c2)(C(=O)O)CC1O` (stereo not given): 16.2 µM; for `CC(=C/c1ccco1)/C=N/NC(=O)Cc1cccn1C`: 1.91 µM.
The figure for `COc1cccc(CNCCc2c[nH]c3ccccc23)c1OCc1ccccc1` is 56 µM; for `O=[N+]([O-])c1c(Nc2ccccc2O)cc(Cl)c2nonc12` it is 9.34 µM.
For `COC(=O)CCC(=O)OC1(C)C(=O)C2=COC(c3ccc(OC)cc3)=CC2=C(Br)C1=O` (stereo not given), the IC50 was 13.7 µM.
With `CC(N=Cc1cccc(O)c1O)c1ccccc1` (stereo not given), the IC50 is 2.61 µM.
On to `O=C(Nc1ccccc1N1CCCC1)c1ccc(Br)o1`, for which the IC50 was 46.2 µM.
`Cc1cccc(C)c1NC(=O)c1ccc(-n2cnnn2)cc1`: the IC50 is 35.8 µM.
In the case of `O=C1c2sc3nc4n(c(=O)c3c2CCC1Br)CCCCC4` (stereo not given), the IC50 was 0.54 µM.
The same measure for `Cc1cc(-c2n[nH]c(=S)n2/N=C/C=C/c2ccco2)n[nH]1`: 6.02 µM.
For the compound `COC(=O)C1=COC(C)C2CN3CCc4c([nH]c5ccccc45)C3CC12` (stereo not given), the IC50 is 17.9 µM.
The same measure for `Oc1ccc(NCc2ccccc2OCc2ccccc2)cc1`: 3.97 µM.
The figure for `Oc1ccc(/C=N/NP(=S)(c2ccccc2)c2ccccc2)c(O)c1O` is 17.6 µM; for `CCCOc1ccc(N)cc1N` it is 7.66 µM; for `CC(C)c1ccc(S(=O)(=O)/N=C2/C=CC(=O)c3ccccc32)cc1` it is 5.36 µM.
The same measure for `Cc1ccc(C)n1-c1sccc1C(=O)O`: 1.92 µM; for `CCN(CC)c1ccc(N=Cc2c(O)n(CCc3ccc(OC)c(OC)c3)c(=O)[nH]c2=O)cc1`: 44.1 µM.
With `O=C(c1ccc2nc(-c3ccco3)c(-c3ccco3)nc2c1)N1CCC2(CC1)OCCO2`, the IC50 is 0.35 µM.
The figure for `Cc1ccc(Nc2cnn(C34CC5CC(CC(CC(=O)O)(C5)C3)C4)c(=O)c2Cl)cc1C` is 96.6 µM.
The same measure for `Oc1ccc(NCc2cccc(OCc3ccccc3)c2)cc1`: 2.14 µM; for `CCN(CC)c1ccc2oc(=O)c(C)nc2c1`: 2.87 µM.
With `Cc1cccc(C)c1NC(=O)COC(=O)c1cc(-c2cccnc2)nc2ccccc12`, the IC50 is 41.4 µM.
Regarding `FC(F)(F)C1=Nc2cccc3cccc(c23)N1`, the IC50 was 5.95 µM.
For the compound `COc1cc(C2Nc3cccc4cccc(c34)N2)cc(OC)c1O`, the IC50 was below 4.18 µM.
The figure for `O=C1c2ccccc2C(=O)N1OCCOCCOCCBr` is 92.3 µM.
The figure for `C/C(=N\O)C(=O)NCc1ccccn1` is 77.5 µM; for `O=C(Nc1nc(-c2ccco2)c(-c2ccco2)s1)C1CCC1` it is 1.93 µM.
The figure for `CC(=O)c1ccc2c(c1)C1C=CCC1C(c1ccncc1)N2` (stereo not given) is 3.16 µM; for `CCN(CC)c1ccc2c(c1)CCCN2` it is 1.17 µM; for `COc1ccc(C2=NOC(C(=O)NCc3cccs3)C2)cc1OC` (stereo not given) it is 89.8 µM.
